The record followed here is patent publication US6753337B2, “Alkynyl containing hydroxamic acid compounds as matrix metalloproteinase/tace inhibitors” (Wyeth Holdings Corporation, priority 1999, dated 2004).

The term IC50 denotes the concentration that inhibits the measured activity by half. Lower therefore signals greater potency in that assay. The inhibition is the percentage by which the read-out fell short of the control. A higher inhibition goes with a response far below the control.

The target of assay [1] is TNF-α converting enzyme (TACE) (Homo sapiens, UniProt P78536). Briefly: Test procedure for measuring TACE inhibition (fluorescent peptidyl substrate). The format is biochemical. Here is the method: Using 96-well black microtiter plates, each well receives a solution composed of 10 μL TACE (final concentration 1 μg/mL), 70 μL Tris buffer, pH 7.4 containing 10% glycerol (final concentration 10 mM), and 10 μL of test compound solution in DMSO (final concentration 1 μM, DMSO concentration <1%) and incubated for 10 minutes at room temperature. The reaction is initiated by addition of a fluorescent peptidyl substrate (final concentration 100 μM to each well and then shaking on a shaker for 5 sec.
The reaction is read (excitation 340 nm, emission 420 nm) for 10 min. and the increase in fluorescence over time is plotted as a linear line. The slope of the line is calculated and represents the reaction rate.
The mean (x±sem) of the control rate is calculated and compared for statistical significance (p<0.05) with drug-treated rates using Dunnett's multiple comparison test.

For the next assay, the system named is THP-1 cells. Briefly: Human monocytic THP-1 cell differentiation assay for soluble proteins (THP-1 soluble protein assay). The following applies: LPS-stimulated THP-1 cells, soluble protein not given. The format is cell-based. An excerpt:
Mitogenic stimulation of THP-1 cells cause differentiation into macrophage like cells with concomitant secretion of tumor necrosis factor (TNF-α) and TNF receptor (TNF-R p75/80 and TNF-R p55160) and Interleukin-8 (IL-8), among other proteins. In addition, non-stimulated THP-1 cells shed both the p75/80 and the p55/60 receptors over time. The release of membrane bound TNF-α and possibly TNF-R p75/80 and TNF-R p55/60, but not IL-8, is mediated by an enzyme called TNF-α converting enzyme or TACE.
THP-1 cells (from ATCC) are a human monocytic cell line which were obtained from the peripheral blood of a person with acute monocytic leukemia. They can be grown in culture and differentiated into macrophage like cells by stimulation with mitogens.
Each vial of cells are cultured for about two weeks prior to being used for an assay and then are used for only 4 to 6 weeks to screen compounds.
Cell exposure to DMSO was limited to 0.1% final concentration. […] Compounds can be evaluated for their effect on basal (non-stimulated) shedding of the receptors by replacing the LPS with […] of THP-1 media.
Plates are placed into an incubator set at 5% CO2 and at 37° C. After 4 hours of incubation, […] of tissue culture supernatant (TCS) is removed for use in an TNF-α ELISA. Following 24 hours of incubation, […] of TCS is removed and used for analysis in TNF-R p75/80, TNF-R p55160 and IL-8 ELISAs.
In addition, at the 24 hours timepoint, and the cells for each treatment group are collected by resuspension in 500 μl/well of THP-1 media and transferred into a FACS tube. […] The samples are run on a Becton Dickinson FaxCaliber FLOW cytometry machine and the amount of dye taken up by each cell is measured in the high red wavelength (FL3). Only cells with compromised membranes (dead or dying) can take up PI. The percent of live cells is calculated by the number of cells not stained with PI, divided by the total number of cells in the sample. The viability values calculated for the drug treated groups were compared to the viability value calculated for the vehicle treated mitogen stimulated group (“vehicle positive control”) to determine the “percent change from control”. This “percent change from control” value is an indicator of drug toxicity.
The quantity of soluble TNF-α, TNF-R p75/80 and TNF-R p55160 and IL-8 in the TCS of the THP-1 cell cultures are obtained with commercially available ELISAs from R&D Systems, by extrapolation from a standard curve generated with kit standards. The number of cells that either take up or exclude PI are measured by the FLOW cytometry machine and visualized by histograms using commercially available Cytologic software for each treatment group including all controls.
Biological variability in the magnitude of the response of THP-1 cell cultures requires that experiments be compared on the basis of percent change from “vehicle positive control” for each drug concentration. Percent change in each soluble protein evaluated from the “vehicle positive control” was calculated for each compound concentration with the following formula: [formula]
For the soluble protein (TNF-α, p75/80, p55/60, IL-8) studies under stimulated conditions, the mean pg/ml of duplicate wells were determined and the results expressed as percent change from “vehicle positive control”. For the soluble protein (p75/80 and p55/60 receptors) studies under non-stimulated conditions, the mean pg/ml of duplicate wells were determined and the results expressed as percent change from “vehicle positive control” utilizing the following formula: [formula]
IC50 values for each compound are calculated by non-linear regression analysis using customized software utilizing the JUMP statistical package.
For the cell viability studies, the viabilities (PI exclusion) of pooled duplicate wells were determined and the results expressed as % change from “vehicle positive control”.

Chain of TNF-α converting enzyme (TACE) (P78536 215-824): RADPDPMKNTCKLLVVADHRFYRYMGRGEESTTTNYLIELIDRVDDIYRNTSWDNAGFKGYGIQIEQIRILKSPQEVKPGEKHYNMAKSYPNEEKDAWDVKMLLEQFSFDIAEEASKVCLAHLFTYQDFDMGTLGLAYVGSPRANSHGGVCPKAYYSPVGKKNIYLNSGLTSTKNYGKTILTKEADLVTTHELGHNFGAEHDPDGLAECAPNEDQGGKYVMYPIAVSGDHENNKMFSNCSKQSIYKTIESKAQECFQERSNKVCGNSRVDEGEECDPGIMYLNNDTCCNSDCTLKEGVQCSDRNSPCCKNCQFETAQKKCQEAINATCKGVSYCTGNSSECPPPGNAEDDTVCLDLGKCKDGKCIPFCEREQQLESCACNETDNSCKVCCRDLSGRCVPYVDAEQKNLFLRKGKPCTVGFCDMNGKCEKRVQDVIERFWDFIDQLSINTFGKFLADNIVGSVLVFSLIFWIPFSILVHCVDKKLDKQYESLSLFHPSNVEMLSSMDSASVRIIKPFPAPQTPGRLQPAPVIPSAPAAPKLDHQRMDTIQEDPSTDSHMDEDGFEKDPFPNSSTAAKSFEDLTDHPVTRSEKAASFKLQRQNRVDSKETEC

Take `CC#CCOc1ccc(S(=O)(=O)C2(C(=O)NO)CCN(Cc3ccc(Br)cc3)CC2)cc1` [Example 1, 1-(4-Bromo-benzyl)-4-(4-but-2-ynyxoy-benzenesulfonyl)-piperdine-4-carboxylic acid hydroxyamide]: in assay [1], the IC50 came to 0.065 µM. The molecule further returned an inhibition at 3 µM in the assay with THP-1 cells of 46%.

Take `CC#CCOc1ccc(S(=O)(=O)C2(C(=O)NO)CCN(Cc3ccc(OC)cc3)CC2)cc1` [Example 2, 4-(4-But-2-ynyloxy-benzenesulfonyl)-1-(4-methoxy-benzyl)-piperdine-4-carboxylic acid hydroxyamide]: the IC50 in assay [1] was found to be 0.082 µM. The molecule further registered an inhibition at 3 µM in the assay with THP-1 cells of 68%.

As to `CC#CCOc1ccc(S(=O)(=O)C2(C(=O)NO)CCN(Cc3ccc(Cl)cc3)CC2)cc1` [Example 3, 4-(4-But-2-ynyloxy-benzenesulfonyl)-1-(4-chloro-benzyl)-piperdine-4-carboxylic acid hydroxyamide], in assay [1], the IC50 is 0.055 µM. Further, in the assay with THP-1 cells, the inhibition at 3 µM is 34%.

For the molecule `CC#CCOc1ccc(S(=O)(=O)C2(C(=O)NO)CCN(Cc3ccccc3)CC2)cc1` [Example 4, 1-Benzyl-4-(4-but-2-ynyloxy-benzenesulfonyl)-piperdine-4-carboxylic acid hydroxyamide], 0.09 µM corresponded to half-maximal inhibition in assay [1] (IC50). This molecule displayed an inhibition at 3 µM in the assay on THP-1 cells of 25%.

In turn, `CCC#CCOc1ccc(S(=O)(=O)C2(C(=O)NO)CCN(Cc3ccc(Br)cc3)CC2)cc1` [Example 5, 1-(4-Bromo-benzyl)-4-(4-pent-2-ynyloxy-benzenesulfonyl)-piperdine-4-carboxylic acid hydroxyamide] registered an IC50 in assay [1] of 0.188 µM. For the same molecule, in the assay with THP-1 cells, at 3 µM the inhibition was 30%.

In assay [1], `CC#CCOc1ccc(S(=O)(=O)C2(C(=O)NO)CCN(Cc3ccc(F)cc3)CC2)cc1` [Example 7, 4-(4-But-2-ynyloxy-benzenesulfonyl)-1-(4-fluoro-benzyl)-piperidine-4-carboxylic acid hydroxyamide] registered an IC50 of 0.123 µM. Besides, the inhibition at 3 µM in the assay with THP-1 cells came to 21%.

Molecule `CC#CCOc1ccc(S(=O)(=O)C2(C(=O)NO)CCN(Cc3ccc(C#N)cc3)CC2)cc1` [Example 8, 4-(4-But-2-ynyloxy-benzenesulfonyl)-1-(4-cyano-benzyl)-piperidine-4-carboxylic acid hydroxyamide] registered a half-maximal inhibitory concentration (IC50) in assay [1] of 0.195 µM. The molecule further gave an inhibition at 3 µM in the assay with THP-1 cells of 21%.

`CC#CCOc1ccc(S(=O)(=O)C2(C(=O)NO)CCN(Cc3ccc(C)cc3)CC2)cc1` [Example 9, 4-(4-But-2-ynyloxy-benzenesulfonyl)-1-(4-methyl-benzyl)-piperidine-4-carboxylic acid hydroxamide]: the IC50 in assay [1] is 0.166 µM. This molecule also returned an inhibition at 3 µM with THP-1 cells of 12%.

As for `C#CCOc1ccc(S(=O)(=O)C2(C(=O)NO)CCN(Cc3ccc(Br)cc3)CC2)cc1` [Example 11, 1-(4-Bromo-benzyl)-4-(4-prop-2-ynyloxy-benzenesulfonyl)-piperdine-4-carboxylic acid hydroxyamide], half-maximal inhibition in assay [1] (IC50) was put at 0.098 µM. The molecule further returned an inhibition at 3 µM with THP-1 cells of 7%.

Regarding `O=C(NO)C1(S(=O)(=O)c2ccc(OCC#CCN3CCCCC3)cc2)CCN(Cc2ccc(Br)cc2)CC1` [Example 12, 1-(4-bromo-benzyl)-4-[4-(4-piperidin-1-yl-but-2-ynyloxy)-benzenesulfonyl]-piperidine-4-carboxylic acid hydroxyamide], in assay [1], the inhibition at 1 µM amounted to 41.8%. In the assay with THP-1 cells, this molecule gave an inhibition at 3 µM of 58%.

Regarding `CC#CCOc1ccc(S(=O)(=O)C2(C(=O)NO)CCOCC2)cc1` [Example 20, 4-{[4-(2-butynyloxy)phenyl]sulfonyl}-N-hydroxytetrahydro-2H-pyran-4-carboxamide], the IC50 in assay [1] turned out to be 0.0301 µM. In the assay on THP-1 cells, the inhibition at 3 µM was determined as 47%.

Consider `CC#CCOc1cccc(S(=O)(=O)C2(C(=O)NO)CCN(Cc3ccccc3)CC2)c1` [Example 21, 1-benzyl-4-{[3-(2-butynyloxy)phenyl]sulfonyl}-N-hydroxy-4-piperdine carboxamide], for which, in assay [1], the IC50 was determined as 0.509 µM. In the assay on THP-1 cells, this molecule displayed an inhibition at 3 µM of 6%.

Take `CC#CCOc1ccc(S(=O)(=O)C2(C(=O)NO)CCN(C(C)C)CC2)cc1` [Example 22, 4-{[4-(2-butynyloxy)phenyl]sulfonyl}-N-hydroxy-1-isopropyl-4-piperidine carboxamide]: at 1 µM the inhibition in assay [1] was 48.4%. Also, in the assay on THP-1 cells, the inhibition at 3 µM was found to be 5%.

Take `CC#CCOc1ccc(S(=O)(=O)C2(C(=O)NO)CCN(Cc3cccnc3)CC2)cc1` [Example 23, 4-{[4-(2-butynyloxy)phenyl]sulfonyl}-N-hydroxy-1-(3-pyridinylmethyl)-4-piperidine carboxamide]: in assay [1], the IC50 came out at 0.0862 µM. The molecule further gave an inhibition at 3 µM with THP-1 cells of 62%.

The molecule `CC#CCOc1ccc(S(=O)(=O)C2(C(=O)NO)CCCN(CC)C2)cc1` (centres unmarked) [Example 24, 3-{[4-(2-Butynyloxy)phenyl]sulfonyl}-1-ethyl-N-hydroxy-3-piperidinecarboxamide] gave an IC50 in assay [1] of 0.18 µM. Further, testing at 3 µM in the assay with THP-1 cells gave an inhibition of 41%.

The molecule `CC#CCOc1ccc(S(=O)(=O)C2(C(=O)NO)CCCN(Cc3ccc(Cl)cc3)C2)cc1` (centres unmarked) [Example 25, 3-{[4-(2-butynyloxy)phenyl]sulfonyl}-1-(4-chlorobenzyl)-N-hydroxy-3-piperidinecarboxamide] gave an IC50 in assay [1] of 0.695 µM. This molecule returned an inhibition at 3 µM in the assay on THP-1 cells of 3%.

`CC#CCOc1ccc(S(=O)(=O)C2(C(=O)NO)CCN(Cc3ccc(OCCN4CCCCC4)cc3)CC2)cc1` [Example 26, 4-{[4-(2-Butynyloxy)phenyl]sulfonyl}-1-[4-(2-piperidin-1-yl-ethoxy)-benzyl]-piperidine-4-carboxylic acid hydroxyamide] displayed an IC50 in assay [1] of 0.136 µM. Further, testing at 3 µM in the assay with THP-1 cells gave an inhibition of 63%.

The molecule `CC#CCOc1ccc(S(=O)(=O)C2(C(=O)NO)CCN(C(CC)CC)CC2)cc1` [Example 27, 4-{[4-(2-Butynyloxy)phenyl]sulfonyl}-1-(3-pentanyl)-piperidine-4-carboxylic acid hydroxyamide] came in with an IC50 in assay [1] of 0.168 µM. The same molecule had an inhibition at 3 µM in the assay on THP-1 cells of 13%.

On to `C#CCOc1ccc(S(=O)(=O)C2(C(=O)NO)CCN(Cc3ccc(OC)cc3)CC2)cc1` [Example 28, 1-(4-Methoxy-benzyl)-4-(4-prop-2-ynyloxy-benzenesulfonyl)-piperidine-4-carboxylic acid hydroxyamide], for which, in assay [1], the IC50 was determined as 0.15 µM. Also, in the assay on THP-1 cells, the inhibition at 3 µM was found to be 13%.

In assay [1], `C#CCOc1ccc(S(=O)(=O)C2(C(=O)NO)CCN(Cc3ccc(Cl)cc3)CC2)cc1` [Example 29, 1-(4-Chlorobenzyl)-4-(4-prop-2-ynyloxy-benzenesulfonyl)-piperidine-4-carboxylic acid hydroxyamide] came in with an IC50 of 0.127 µM. The same molecule yielded an inhibition at 3 µM with THP-1 cells of 13%.

For `CC#CCOc1ccc(SCC2(C(=O)NO)CCN(C(=O)OC(C)(C)C)CC2)cc1` [Example 30, tert-butyl-4-({[4-(2-butynyloxy)phenyl]sulfanyl}methyl)-4-[(hydroxyamino)-carbonyl]-1-piperidinecarboxylate], in assay [1], the IC50 was 0.102 µM. In addition, the inhibition at 3 µM in the assay with THP-1 cells was determined as 0%.

Take `CC#CCOc1ccc(SCC2(C(=O)NO)CCNCC2)cc1` [Example 31, 4-({[4-(But-2-ynyloxy)phenyl]thio}methyl)-N-hydroxypiperidine-4-carboxamide]: the IC50 in assay [1] was 0.314 µM. In the assay with THP-1 cells, this molecule had an inhibition at 3 µM of 8%.
